One series relates to L929 fibroblasts. Description: Annexin V/PI apoptosis, normal cell line. The format is cell-based. As to conditions: L929 fibroblasts cultured under attached conditions.
For a further series, the system named is A549 CSC. To be noted: stated as known; cited from earlier work.

Data on one substance can be found in patent publication US20220257514A1, “MONOSACCHARIDE-TAGGED NANO-LIPOSOME DRUG DELIVERY SYSTEM, THE MANUFACTURE AND USE FOR DRUG TARGETING DELIVERY THEREOF” (National Yang Ming Chiao Tung University, priority 2019, published 2022).

In the case of ceramide [free ceramide], in the series on L929 fibroblasts, the “apoptosis in normal cells” value is recorded as “neither free ceramide nor G5C3 cause significant apoptosis”. The “resistance of A549 CSC” value in the series with A549 CSC is recorded as “resistant to free ceramide”.
